Source: patent US20090258863A1, “Method for treatment of amyotrophic lateral sclerosis using talampanel” (priority 2008, published 2009)

Key:
[1] = tested on: GABA receptor complex; settings: Tarnawa et al. 1989; cited from earlier work
[2] = tested on: motor neurons; settings: in vitro; cited from earlier work
[3] = tested on: mouse model of ALS; settings: Van Damme et al. 2003; cited from earlier work
[4] = tested on: N-acetyltransferse NAT2 isozymes; assay: Previous clinical trial: N-acetylation of talampanel by NAT2; format: in vivo, human
Excerpt: N-acetylation was identified as one metabolic pathway of talampanel, catalyzed by N-acetyltransferse NAT2 isozymes. A genetic polymorphism in the NAT2 gene affects the acetylation rate. […] The three common slow acetylator alleles identified are NAT2*5A, NAT2*6A and NAT2*7A. The NAT2*5 alleles have the greatest reductions in metabolic activation while NAT2*6 alleles have more moderate reductions and NAT2*7 alleles have the smallest, but yet significant, reductions. The frequency of NAT2 slow acetylators (about 2-10% in Asian, 60-70% in Caucasians, 30-40% in Africans) and NAT2 fast acetylators (about 40-60% in Asian, 3-15% in Caucasian, 10-25% in Africans) varies markedly with ethnicity.

[5] = tested on: ALS patients; settings: cited from earlier work
[6] = tested on: motor neurons; settings: organotypic spinal cord slice model; cited from earlier work
[7] = tested on: ALS; assay: Pilot study of talampanel in ALS, 50 mg t.i.d. vs placebo; format: in vivo, human; settings: placebo −10.2, p=0.08, positive trend
Description: A pilot study of talampanel in ALS compared 50 mg t.i.d of talampanel to placebo. The study found a positive trend in the ALSFRS scores of talampanel treated relative to placebo (average score −7.1 vs. −10.2, p=0.08).

[8] = tested on: subjects with ALS; assay: Example 2: another clinical trial according to the procedure of Example 1; format: in vivo, human
Description: (§1) A subject is assessed for study eligibility at a screening visit (one to 4 weeks prior to baseline). Subjects who are found eligible to participate in the study are randomized in a 2:1:2 ratio into one of the following three treatment groups based on a randomization scheme with blocks stratified by center: • 1. 50 mg (25 mg capsule×2) talampanel t.i.d. (150 mg daily) • 2. 25 mg (12.5 mg capsule×2) talampanel t.i.d. (75 mg daily) • 3. Placebo
(§2) After undergoing randomization subjects receive their first dose of study treatment on site. There are two possible escalation periods to reach maximal dose of 6 capsules per day, as follows: • Screening Period Up to 4 weeks but not less than 1 week. The period between screening visit and baseline visit. During this time period all relevant data for the assessment of subjects eligibility should be collected and reviewed i.e. lab results, ECG, medical history etc. • First Escalation Period: A period of 4 to 6 weeks, following screening period. This period starts at baseline visit, following randomization; • Second Escalation Period: A period of 2 weeks, this period starts at week 10 visit and ends at week 12 visit. • Maintenance Period: A time period of 46 to 48 weeks, following the first escalation period, starting after reaching maximal achieved dose in the first escalation period. During this period oral administration of talampanel 25 mg t.i.d., 50 mg t.i.d. (or maximal achieved dose) or matching oral placebo is maintained.
(§3) The first escalation period is a period of 4-6 weeks, following randomization. The dose escalation plan for the 25 mg and 50 mg t.i.d. dose levels, respectively, is as follows: • First week: from baseline visit to week 1 (telephone visit): Three capsules (37.5 mg or 75 mg daily) one each a.m., mid-day and p.m. dosing. • Second week: from week 1 (telephone visit) to week 2 (telephone visit): Four capsules (50 mg or 100 mg daily) one each a.m. & mid-day, two at p.m. dosing. • Third week: from week 2 (telephone visit) to week 3 (telephone visit): Five capsules (62.5 mg or 125 mg daily) two at a.m. one in mid-day and two at p.m. dosing. • Fourth week: from week 3 (telephone visit) to week 4 on site visit: Six capsules (75 mg or 150 mg daily) two at each a.m., mid-day and p.m. dosing.
(§4) At in-clinic visits the following are assessed: • Revised ALS Functional Rating Scale (ALSFRS-R) (screening, baseline, weeks 4-6, 12, 26, 40, 52/ET and unscheduled) • Slow VC (screening, baseline, weeks 4-6, 12, 26, 40, 52/ET and unscheduled) • Manual Muscle Testing (MMT) (baseline, weeks 12, 26, 40, 52/ET and unscheduled) • ALS-Specific Quality of life (ALSSQoL) scale (baseline, weeks 26, 52/ET) [US and Canada Only] • EuroQol-5 Dimensions (EQ-5D) health outcomes scale (baseline, weeks 4-6, 12, 26, 40 and 52/ET) • Health Care Resource Utilization Questionnaire for ALS (baseline, weeks 4-6, 12, 26, 40, 52/ET) • Caregiver burden questionnaire, Zarit Burden Interview (ZBI) [caregiver] (Baseline, weeks 12, 26, 40, 52/ET) • Laboratory (screening, baseline, weeks 4-6, 12, 26, 40, 52/ET and unscheduled) • ECG (screening, baseline (3 times), weeks 4-6, 12, 26, 40, 52/ET and unscheduled) • Physical examination (screening, baseline, weeks 4-6, 12, 26, 40 and 52/ET and unscheduled) • Vital signs and weights (screening, baseline, weeks 4-6, 12, 26, 40 and 52/ET and unscheduled) • Check of concomitant medications, AEs and compliance • Pharmacokinetics (PK): Safety Pharmacokinetics (PK) blood samples are taken after at least 3 days on the maximal achieved dose at end of first escalation period at week 4-6 (pre-dose, anytime in the range of 0.5-2 hours post-dose and anytime in the range of 2-4 hours post dose with at least 1 hour difference between the 2 post dose samples) and at week 12 (pre-dose, anytime in the range of 0.5-2 hours post-dose and anytime in the range of 2-4 hours post dose with at least 1 hour difference between the 2 post dose samples). […]

[9] = tested on: subjects with ALS; assay: Example 3: another clinical trial according to the procedure of Example 1; format: in vivo, human
Description: as §1, §2, §3, §4

[10] = tested on: AMPA subtype of glutamate excitatory amino acid receptors; settings: AMPA antagonist; cited from earlier work
[11] = human, in vivo
Description: (§5) In this study, the daily dose is increased by 12.5 mg or 25 mg daily each week to reach 75 mg or 150 mg daily (25 mg t.i.d. or 50 mg t.i.d.) respectively, at the 4th to 6th week or at the 11th to 12th week if needed.

[12] = Prior clinical trials with talampanel: safety and tolerability; settings: previous clinical trials
Description: as §5

[13] = tested on: subjects with ALS; assay: Example 4: another clinical trial according to the procedure of Example 1; format: in vivo, human
Description: as §1, §2, §3, §4

[14] = 50 mg t.i.d., statistically significant
[15] = talampanel group, dose not stated, vs placebo

Q: With `CC1=NN=C(c2ccc(N)cc2)c2cc3c(cc2C1)OCO3` [GYKI-52466] as the compound, how does the “1,4-benzodiazepine (diazepam-like) activity at the GABA receptor complex” value [1] read?
A: no classical 1,4-benzodiazepine (that is, “diazepam-like”) activity

Q: Which “kainate induced calcium entry into motor neurons” value [2] does the source give for `NS(=O)(=O)c1cccc2c1c([N+](=O)[O-])cc1nc(O)c(O)nc12` [NBQX] here?
A: blocked

Q: What about the “prolonged survival in ALS mice” value [3] of the same compound?
A: 14 days

Q: For `CC(=O)Nc1ccc(C2=NN(C(C)=O)C(C)Cc3cc4c(cc32)OCO4)cc1` (stereo not drawn) [NAC talampanel], which “measurable levels of NAC talampanel by acetylator status” value ([4]; human, in vivo) is on record?
A: seen primarily in fast acetylator subjects, but not in slow acetylators

Q: For `CC1(C)O[C@@H]2[C@@H](CO[C@@]3(COS(N)(=O)=O)OC(C)(C)O[C@@H]23)O1` [topiramate], which “benefit in clinical trial in ALS patients” value ([5]; Cudkowicz et al. 2003) is on record?
A: no benefit

Q: What about the “adverse events in patients” value ([5]; including dramatic weight loss) of the same compound?
A: significant adverse events

Q: What about the “protection of motor neurons” value [6] of the same compound?
A: protected motor neurons

Q: Which “ALSFRS scores, average score” value [7] does the source give for `CC(=O)N1N=C(c2ccc(N)cc2)c2cc3c(cc2C[C@H]1C)OCO3` [talampanel] here?
A: −7.1

Q: And the “decrease in the slopes of ALSFRS-R as compared to placebo” value (“decrease in the slopes of ALSFRS-R” below) ([8]; 25 mg t.i.d.)?
A: 20%

Q: What about the “risk of either death, tracheostomy, or permanent assisted ventilation” value (“risk of either death, tracheostomy” below) ([8]; 25 mg t.i.d.) of the same compound?
A: reduction

Q: What about the “decrease in the change in ALSFRS-R from baseline to LOV in comparison to placebo” value (“decrease in the change in ALSFRS-R” below) ([8]; 50 mg t.i.d.) of the same compound?
A: 20%

Q: And the “risk of either death, tracheostomy” value ([8]; 50 mg t.i.d.)?
A: decrease

Q: What about the “adjusted mean change from baseline in MMT across visits” value ([8]; 50 mg t.i.d. vs placebo) of the same compound?
A: decrease

Q: And the “adjusted mean change from baseline in Slow VC across visits” value ([8]; 50 mg t.i.d. vs placebo)?
A: decrease

Q: What about the “slopes of MMT” value ([8]; 50 mg t.i.d. vs placebo) of the same compound?
A: decrease

Q: And the “slopes of Slow VC” value ([8]; 50 mg t.i.d. vs placebo)?
A: decrease

Q: What about the “decrease in the slopes of ALSFRS-R” value [8, 14] of the same compound?
A: 20%

Q: What about the “change in MMT from baseline to LOV” value [8, 15] of the same compound?
A: decrease

Q: What about the “decrease in the slopes of ALSFRS-R” value ([9]; 25 mg t.i.d.) of the same compound?
A: 25%

Q: What about the “risk of either death, tracheostomy” value ([9]; 25 mg t.i.d.) of the same compound?
A: reduction

Q: What about the “adjusted mean change from baseline in MMT across visits” value ([9]; 50 mg t.i.d vs placebo) of the same compound?
A: decrease

Q: What about the “decrease in the change in ALSFRS-R” value ([9]; 50 mg t.i.d.) of the same compound?
A: 25%

Q: What about the “risk of either death, tracheostomy” value ([9]; 50 mg t.i.d.) of the same compound?
A: decrease

Q: And the “adjusted mean change from baseline in Slow VC across visits” value ([9]; 50 mg t.i.d. vs placebo)?
A: decrease

Q: What about the “slopes of MMT” value ([9]; 50 mg t.i.d. vs placebo) of the same compound?
A: decrease

Q: What about the “slopes of Slow VC” value ([9]; 50 mg t.i.d. vs placebo) of the same compound?
A: decrease

Q: And the “decrease in the slopes of ALSFRS-R” value [9, 14]?
A: 25%

Q: What about the “change in MMT from baseline to LOV” value [9, 15] of the same compound?
A: decrease

Q: What about the “potency relative to GYKI-52466” value [10] of the same compound?
A: more potent

Q: What about the “safety and tolerability of the dose” value [11] of the same compound?
A: safe and tolerated

Q: And the “adverse events when the dose is gradually increased over time” value [12]?
A: reduced

Q: And the “decrease in the slopes of ALSFRS-R” value ([13]; 25 mg t.i.d.)?
A: 30%

Q: And the “risk of either death, tracheostomy” value ([13]; 25 mg t.i.d.)?
A: reduction

Q: What about the “decrease in the change in ALSFRS-R” value ([13]; 50 mg t.i.d.) of the same compound?
A: 30%

Q: What about the “risk of either death, tracheostomy” value ([13]; 50 mg t.i.d.) of the same compound?
A: decrease

Q: What about the “adjusted mean change from baseline in MMT across visits” value ([13]; 50 mg t.i.d. vs placebo) of the same compound?
A: decrease

Q: And the “adjusted mean change from baseline in Slow VC across visits” value ([13]; 50 mg t.i.d. vs placebo)?
A: decrease

Q: What about the “slopes of MMT” value ([13]; 50 mg t.i.d. vs placebo) of the same compound?
A: decrease

Q: What about the “slopes of Slow VC” value ([13]; 50 mg t.i.d. vs placebo) of the same compound?
A: decrease

Q: And the “decrease in the slopes of ALSFRS-R” value [13, 14]?
A: 30%

Q: And the “change in MMT from baseline to LOV” value [13, 15]?
A: decrease

Q: What about the “N-acetylation dependence on NAT2 activity” value ([4]; metabolic pathway) of the same compound?
A: highly dependent on NAT2 activity
